We go through four molecules from US20250051286A1, “SMALL MOLECULE INHIBITORS OF PR3 AND HNE AND USES THEREOF” (ORIXA THERAPEUTICS LLC, priority 2021, published 2025).

No end group written: not given here.

The nature of assay [1]: Treatment of Alpha-1 Antitrypsin Deficiency patient (Example 4). The assay is classed as in vivo, human. Particulars: orally 50 mg once per day; within two weeks. An excerpt:
In this example, a patient is diagnosed with AATD after presenting symptoms related to difficulty breathing and mild jaundice. […] The patient receives conventional therapy (e.g., bronchodilators, inhaled corticosteroids, pulmonary rehabilitation and supplemental oxygen). […] This treatment leads to some improvement, but the patient returns to the clinic seeking an alternative treatment.
The treating physician administers a compound of Formula DCT-5A to the patient: […]
The patient is administered the drug orally (i.e., 50 mg, once per day). Within two weeks, the signs/symptoms of AATD are resolved by about 80% and the patient appears in good health. The patient resumes the treatment and is periodically monitored for changes in their condition.

A short description of assay [2]: Treatment of PR3 positive ulcerative colitis patient (Example 7). In kind it is in vivo, human. The following applies: intravenously 5 mcg/minute for 1 hour, second dose after 24 hours; within two days. The method, then: In this example, a patient is admitted to a hospital with cough and fever (over 39.0° C.). About one month prior, they had presented with fever (over 39.0° C.), diarrhea and bloody bowel discharge. Upon admission, their hemoglobin was 8.9 g/dl and the serum C-reactive protein level was 6.8 mg/dl. […] Further, the patient tested positive for PR3-ANCA serological marker.
The treating physician administers a compound of Formula DCT-5A to the patient. The patient is administered the drug intravenously (i.e., 5 mcg/minute for 1 hour). The patient is administered a second dose after 24 hours. […] Thereafter, the patient is administered the drug orally (50 mg per day). The patient resumes the treatment and is periodically monitored for changes in their condition.

Assay [3] can be described thus: Treatment of severe inflammation, post-surgery patient (Example 5). Particulars: intravenously 5 mcg/minute for 1 hour, second dose after 24 hours; within two days. The assay is classed as in vivo, human. The procedure: In this example, a patient is recovering from surgery following a traumatic vehicle accident. The treating physician anticipates further complications such as acute respiratory distress syndrome (ARDS) and (multiple) organ failure. To prevent this, the treating physician administers a compound of Formula DCT-5A to the patient. The patient is administered the drug intravenously (i.e., 5 mcg/minute for 1 hour). The patient is administered a second dose after 24 hours. […] The patient resumes the treatment and is periodically monitored for changes in their condition.

Assay [4] can be described thus: Treatment of Granulomatosis with Polyangiitis patient (Example 6). Particulars: GPA patient; orally 50 mg once per day; within one week. The assay is classed as in vivo, human. The method, then: In this example, a patient complains of several symptoms including sinus pain, cough, fever, joint aches, blood in urine, and hearing loss. A physician diagnosis them with GPA after analyzing diagnostic markers.
The treating physician anticipates further complications such as acute respiratory distress syndrome (ARDS) and (multiple) organ failure. To prevent this, the treating physician administers a compound of Formula DCT-5A to the patient. The patient is administered the drug orally (i.e., 50 mg, once per day). Within one week, the signs/symptoms of AATD are resolved by about 90% and the patient appears in good health. The patient resumes the treatment and is periodically monitored for changes in their condition.

For assay [5] the following is noted: CF patients in an exacerbated state of inflammation; cited from earlier work.
For assay [6] the following is noted: DSS-induced mouse model of UC; cited from earlier work.

`N=C(N)NCCC(CCCc1ccc(F)cc1)C(=O)NN1CN(CCCc2ccccc2)[C@H](Cc2ccc(O)cc2)C1=O` (stereo partly shown) [DCT-5A]: the “signs/symptoms of AATD resolved” value in assay [1] is recorded as “about 80%”; in assay [4] it was “about 90%”. Also, the “clinical course of the patient” value in assay [2] and in assay [3] was “shows signs of improvement” throughout.
For “A1PI: α1-proteinase inhibitor, a serpin; endogenous inhibitor of neutrophilic serine proteinases”, the “effect on IL6, IL1β and NE activity” value in assay [5] was “decrease”.
On to “elafin: polypeptide inhibitor of some peptidases and elastases; inhibits HNE, PR3 and pancreatic elastase (AQEPVKGPVSTKPGSCPIILIRCAMLNPPNRCLKDTDCPGIKKCCEGSCGMACFVPQ; ends and bridges not checked; cysteine pairing not given here; UniProt P19957 61-117, looked up)”, for which the reducing inflammation entry in assay [6] is reported as “successful in reducing inflammation in a dose-dependent manner”.

B1: SLPI: locally produced chelonianin; inhibits HNE but not PR3 (protein, UniProt P03973 26-132, looked up)
Antileukoproteinase: SGKSFKAGVCPPKKSAQCLRYKKPECQSDWQCPGKKRCCPDTCGIKCLDPVDTPNPTRRKPGKCPVTYGQCLMLNPPNFCEMDGQCKRDLKCCMGMCGKSCVSPVKA
For B1, the reducing inflammation result in assay [6] is on record as “also successful”.
